Patent publication US20260285850A1, “SUBSTITUTED OXAZOLIDINONES AND IMIDAZOLINONES AS HERBICIDES” (FMC CORPORATION, priority 2023, published 2026)

What was measured:
Format in all cases: in vivo
[1] = test system: soybean (Glycine max); experiment: Test A preemergence soil spray, visual injury rating 0-100; conditions: 10 days, 0 = no effect, 100 = complete control
Summary of the method: (§1)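 Compound in a non-phytotoxic, surfactant-containing solvent is applied either as a directed soil spray before seedlings emerge or onto emerged plants 2-10 cm tall; pots hold a loam-sand blend. Plants grow 10 days under greenhouse conditions and are rated by eye against untreated controls (0 no effect, 100 complete control).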

[2] = test system: green foxtail (Setaria viridis); experiment: as above; conditions: 10 days, 0 = no effect, 100 = complete control
Summary of the method: as §1

[3] = test system: blackgrass (Alopecurus myosuroides); experiment: as above; conditions: 10 days, 0 = no effect, 100 = complete control
Summary of the method: as §1

[4] = test system: corn (Zea mays); experiment: as above; conditions: 10 days, 0 = no effect, 100 = complete control
Summary of the method: as §1

[5] = test system: ragweed (common ragweed, Ambrosia artemisiifolia); experiment: as above; conditions: 10 days, 0 = no effect, 100 = complete control
Summary of the method: as §1

[6] = test system: barnyardgrass (Echinochloa crus-galli); experiment: as above; conditions: 10 days, 0 = no effect, 100 = complete control
Summary of the method: as §1

[7] = test system: wheat (Triticum aestivum); experiment: as above; conditions: 10 days, 0 = no effect, 100 = complete control
Summary of the method: as §1

[8] = test system: oat, wild (wild oat, Avena fatua); experiment: as above; conditions: 10 days, 0 = no effect, 100 = complete control
Summary of the method: as §1

[9] = test system: ryegrass, Italian (italian ryegrass, Lolium multiflorum); experiment: as above; conditions: 10 days, 0 = no effect, 100 = complete control
Summary of the method: as §1

[10] = test system: palmer (palmer amaranth, palmer pigweed, Amaranthus palmeri); experiment: as above; conditions: 10 days, 0 = no effect, 100 = complete control
Summary of the method: as §1

[11] = test system: kochia (Bassia scoparia); experiment: as above; conditions: 10 days, 0 = no effect, 100 = complete control
Summary of the method: as §1

[12] = test system: ducksalad (Heteranthera limosa); experiment: Test B flooded paddy test, visual plant response rating 0-100; conditions: 250 g ai/ha, Flood, applied to paddy water, evaluated after 13 days
Summary of the method: (§2)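 Visual scores versus untreated controls were recorded 13 days after treatment of greenhouse-held plants. At the 2-leaf stage, pots were flooded 3 cm above the soil surface and compounds added straight to the water.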

[13] = test system: barnyardgrass (Echinochloa crusgalli); experiment: as above; conditions: 250 g ai/ha, Flood, applied to paddy water, evaluated after 13 days
Summary of the method: as §2

[14] = test system: rice (Oryza sativa); experiment: as above; conditions: 250 g ai/ha, Flood, applied to paddy water, evaluated after 13 days
Summary of the method: as §2

[15] = test system: sedge, umbrella (small-flower umbrella sedge, Cyperus difformis); experiment: as above; conditions: 250 g ai/ha, Flood, applied to paddy water, evaluated after 13 days
Summary of the method: as §2

[16] = test system: soybean (Glycine max); experiment: Test A postemergence application, visual injury rating 0-100; conditions: 10 days
Summary of the method: as §1

[17] = test system: green foxtail (Setaria viridis); experiment: as above; conditions: 10 days
Summary of the method: as §1

[18] = test system: blackgrass (Alopecurus myosuroides); experiment: as above; conditions: 10 days
Summary of the method: as §1

[19] = test system: corn (Zea mays); experiment: as above; conditions: 10 days
Summary of the method: as §1

[20] = test system: ragweed (common ragweed, Ambrosia artemisiifolia); experiment: as above; conditions: 10 days
Summary of the method: as §1

[21] = test system: barnyardgrass (Echinochloa crus-galli); experiment: as above; conditions: 10 days
Summary of the method: as §1

[22] = test system: wheat (Triticum aestivum); experiment: as above; conditions: 10 days
Summary of the method: as §1

[23] = test system: oat, wild (wild oat, Avena fatua); experiment: as above; conditions: 10 days
Summary of the method: as §1

[24] = test system: ryegrass, Italian (italian ryegrass, Lolium multiflorum); experiment: as above; conditions: 10 days
Summary of the method: as §1

[25] = test system: horseweed (Erigeron canadensis); experiment: as above; conditions: 10 days
Summary of the method: as §1

[26] = test system: palmer (palmer amaranth, palmer pigweed, Amaranthus palmeri); experiment: as above; conditions: 10 days
Summary of the method: as §1

[27] = test system: kochia (Bassia scoparia); experiment: as above; conditions: 10 days
Summary of the method: as §1

[28] = test system: galium (catchweed bedstraw, Galium aparine); experiment: as above; conditions: 10 days
Summary of the method: as §1

[29] = 31 g ai/ha, postemergence, 0 = no effect, 100 = complete control
[30] = Postemergence, 125 g ai/ha, 0 is no effect, 100 is complete control

CSCCOC(=O)C1=CCC(NC(=O)C2(C)CN(c3cc(F)cc(F)c3)C(=O)O2)C1 (stereo not shown) [Compound 22]
Soybean plant response rating (0-100) ([1]; 31 g ai/ha): 0 | Soybean plant response rating (0 to 100 scale) ([1]; 125 g ai/ha): 10 | Foxtail, Green plant response rating (0-100) ([2]; 31 g ai/ha): 0 | Foxtail, Green plant response rating (0 to 100 scale) ([2]; 125 g ai/ha): 30 | Blackgrass plant response rating (0-100) ([3]; 31 g ai/ha): 0 | Blackgrass plant response rating (0 to 100 scale) ([3]; 125 g ai/ha): 20 | Corn plant response rating (0-100) ([4]; 31 g ai/ha): 20 | Corn plant response rating (0 to 100 scale) ([4]; 125 g ai/ha): 20 | Ragweed plant response rating (0-100) ([5]; 31 g ai/ha): 0 | Ragweed plant response rating (0 to 100 scale) ([5]; 125 g ai/ha): 0 | Barnyardgrass plant response rating (0-100) ([6]; 31 g ai/ha): 0 | Barnyardgrass plant response rating (0 to 100 scale) ([6]; 125 g ai/ha): 0 | Wheat plant response rating (0-100) ([7]; 31 g ai/ha): 20 | Wheat plant response rating (0 to 100 scale) ([7]; 125 g ai/ha): 60 | Oat, Wild plant response rating (0-100) ([8]; 31 g ai/ha): 0 | Oat, Wild plant response rating (0 to 100 scale) ([8]; 125 g ai/ha): 20 | Ryegrass, Italian plant response rating (0-100) ([9]; 31 g ai/ha): 0 | Ryegrass, Italian plant response rating (0 to 100 scale) ([9]; 125 g ai/ha): 50 | Amaranth, Palmer plant response rating (0-100) ([10]; 31 g ai/ha): 0 | Amaranth, Palmer plant response rating (0 to 100 scale) ([10]; 125 g ai/ha): 80 | Kochia plant response rating (0-100) ([11]; 31 g ai/ha): 0 | Kochia plant response rating (0 to 100 scale) ([11]; 125 g ai/ha): 0 | Plant response rating, Ducksalad (0 to 100 scale, 0 is no effect and 100 is complete control) [12]: 0 | Plant response rating, Barnyardgrass (0 to 100 scale, 0 is no effect and 100 is complete control) [13]: 0 | Plant response rating, Rice (0 to 100 scale, 0 is no effect and 100 is complete control) [14]: 0 | Plant response rating, Sedge, Umbrella (0 to 100 scale, 0 is no effect and 100 is complete control) [15]: 0 | Soybean plant response rating (0-100) [16, 29]: 70 | Soybean plant response rating (0 to 100 scale) [16, 30]: 90 | Foxtail, Green plant response rating (0-100) [17, 29]: 20 | Foxtail, Green plant response rating (0 to 100 scale) [17, 30]: 80 | Blackgrass plant response rating (0-100) [18, 29]: 60 | Blackgrass plant response rating (0 to 100 scale) [18, 30]: 80 | Corn plant response rating (0-100) [19, 29]: 50 | Corn plant response rating (0 to 100 scale) [19, 30]: 100 | Ragweed plant response rating (0-100) [20, 29]: 0 | Ragweed plant response rating (0 to 100 scale) [20, 30]: 50 | Barnyardgrass plant response rating (0-100) [21, 29]: 70 | Barnyardgrass plant response rating (0 to 100 scale) [21, 30]: 90 | Wheat plant response rating (0-100) [22, 29]: 90 | Wheat plant response rating (0 to 100 scale) [22, 30]: 90 | Oat, Wild plant response rating (0-100) [23, 29]: 40 | Oat, Wild plant response rating (0 to 100 scale) [23, 30]: 70 | Ryegrass, Italian plant response rating (0-100) [24, 29]: 60 | Ryegrass, Italian plant response rating (0 to 100 scale) [24, 30]: 70 | Horseweed plant response rating (0-100) [25, 29]: 0 | Horseweed plant response rating (0 to 100 scale) [25, 30]: 30 | Amaranth, Palmer plant response rating (0-100) [26, 29]: 20 | Amaranth, Palmer / Pigweed, Palmer plant response rating (0 to 100 scale) [26, 30]: 80 | Kochia plant response rating (0-100) [27, 29]: 60 | Kochia plant response rating (0 to 100 scale) [27, 30]: 90 | Galium plant response rating (0-100) [28, 29]: 60 | Galium plant response rating (0 to 100 scale) [28, 30]: 80
